Results as given in patent US7977327B2, “Substituted pyrrolidine derivative” (Daiichi Sankyo Company, Limited, priority 2004, dated 2011).
Converted amounts (≈) assume the structure as drawn. Where a name gives a salt, the structure may show the parent alone. Read-outs that look alike come from different tables or passages of the source. Marks after values point to notes of the source that are not given here.

Key:
S. marcescens 10100 = test: Antibacterial activity (MIC), standard method of the Japan Society of Chemotherapy; assay type: cell-based
Method: (§1) The antimicrobial activities of the compounds of the present invention were determined according to a standard method designated by the Japan Society of Chemotherapy. The results are expressed by MIC (μg/mL) (Table 1). In Table 1, S. aureus 870307 and S. pneumonia J24 are quinolone-resistant bacteria.

E. coli NIHJ = test: as above; assay type: cell-based
Method: as §1

P. Vulgalis 08601 = test: as above; assay type: cell-based
Method: as §1

S. pyogenes G-36 = test: as above; assay type: cell-based
Method: as §1

P. aeruginosa 32104 = test: as above; assay type: cell-based
Method: as §1

P. aeruginosa 32121 = test: as above; assay type: cell-based
Method: as §1

S. maltophilia IID 1275 = test: as above; assay type: cell-based
Method: as §1

K. pneumoniae TYPE I = test: as above; assay type: cell-based
Method: as §1

S. flexneri 2A 5503 = test: as above; assay type: cell-based
Method: as §1

S. aureus 870307 = test: as above; assay type: cell-based
Method: as §1

S. aureus FDA 209P = test: as above; assay type: cell-based
Method: as §1

E. faevcalis ATCC 19433 = test: as above; assay type: cell-based
Method: as §1

S. pneumoniae J24 = test: as above; assay type: cell-based
Method: as §1

S. epidermidis 56500 = test: as above; assay type: cell-based
Method: as §1

[1] = test system: Chinese hamster lung (CHL/IU) cells; test: Effect of inducing chromosomal aberration; assay type: cell-based; conditions: for Percentile induction of structural aberration (TA %): 24 hours
Method: From each sample solution, samples to be tested having a concentration of 1, 3, 10, 30, 50, and 100 μg/mL (as reduced to free form) were prepared. As a negative control, 0.1 mol/L NaOH was employed.
Chinese hamster lung (CHL/IU) cells in logarithmic growth phase were employed. The cells were treated in a culture solution containing each sample to be tested for 24 hours. Subsequently, a chromosome specimen was prepared from the thus-treated cells. The culture solution employed was an Eagle's MEM (product of NISSUI PHARMACEUTICAL CO., LTD.) medium containing 15% fetal bovine serum (15% FBS-MEM).
In each sample concentration, 100 cells during metaphase were observed, to thereby record types and numbers of the chromosomal aberration.

[2] = S. aureus 870307, quinolone-resistant
[3] = S. pneumoniae J24, quinolone-resistant

For `CCC[C@H]1CN(c2c(F)cc3c(=O)c(C(=O)O)cn4c3c2OC[C@@H]4C)C[C@H]1N` (as salt: hydrochloride), the melting point was 225 to 231 °C.
`CCC[C@H]1CN(c2c(F)cc3c(=O)c(C(=O)O)cn([C@@H]4C[C@@H]4F)c3c2C)C[C@H]1N` (as salt: hydrochloride) [Compound No. 5, 7-[(3S,4S)-3-Amino-4-propylpyrrolidin-1-yl]-6-fluoro-1-[(1R,2S)-2-fluorocyclopropyl]-8-methyl-1,4-dihydro-4-oxoquinoline-3-carboxylic acid-hydrochloride] gave a melting point of 197 to 207 °C.
With `O=C(O)c1cn(C2CC2)c2cc(N3CCNCC3)c(F)cc2c1=O` [CPFX, reference compound] the MIC (S. marcescens 10100; S. marcescens 10100) was 0.025 µg/mL (≈ 0.0754 µM), the MIC (E. coli NIHJ; E. coli NIHJ) was “≦0.003 μg/mL” and the MIC (P. Vulgalis 08601; P. Vulgalis 08601) was “≦0.003 μg/mL”. For the same compound, the MIC (S. pyogenes G-36; S. pyogenes G-36) was 1.56 µg/mL (≈ 4.71 µM), the MIC (P. aeruginosa 32104; P. aeruginosa 32104) was 0.05 µg/mL (≈ 0.151 µM) and the MIC (P. aeruginosa 32121; P. aeruginosa 32121) was 0.025 µg/mL (≈ 0.0754 µM). The MIC (S. maltophilia IID 1275; S. maltophilia IID 1275) was 0.78 µg/mL (≈ 2.35 µM), the MIC (K. pneumoniae TYPE I; K. pneumoniae TYPE I) was 0.025 µg/mL (≈ 0.0754 µM) and the MIC (S. flexneri 2A 5503) was 0.006 µg/mL (≈ 0.0181 µM). It also gave an MIC (S. aureus 870307; [2]) of over 6.25 µg/mL, an MIC (S. aureus FDA 209P; S. aureus FDA 209P) of 0.1 µg/mL (≈ 0.302 µM) and an MIC (E. faevcalis ATCC 19433; E. faevcalis ATCC 19433) of 0.78 µg/mL (≈ 2.35 µM). The MIC (S. pneumoniae J24; [3]) was 0.39 µg/mL (≈ 1.18 µM) and the MIC (S. epidermidis 56500; S. epidermidis 56500) was 0.2 µg/mL (≈ 0.604 µM).
With `CC[C@H]1CN(c2c(F)cc3c(=O)c(C(=O)O)cn(C4CC4)c3c2C)C[C@H]1N` [Comparative Compound D, 7-[(3S,4S)-3-Amino-4-ethylpyrrolidine-1-yl]-1-cyclopropyl-6-fluoro-8-methyl-1,4-dihydro-4-oxoquinoline-3-carboxylic acid, reference compound] the “Percentile induction of structural aberration (TA %)” value (“Percentile induction … (TA %)” below) ([1]; 1 μg/mL, CHL/IU cells) was 4%, the “Percentile induction … (TA %)” value ([1]; 3 μg/mL, CHL/IU cells) was 0% and the “Percentile induction … (TA %)” value ([1]; 10 μg/mL, CHL/IU cells) was 3%. The “Percentile induction … (TA %)” value ([1]; 30 μg/mL, CHL/IU cells) was 63* %, the “Percentile induction … (TA %)” value ([1]; 50 μg/mL, CHL/IU cells) was 98* % and the “Percentile induction … (TA %)” value ([1]; 100 μg/mL, CHL/IU cells) was 100* %.
With `CC[C@H]1CN(c2c(F)c(N)c3c(=O)c(C(=O)O)cn(C4CC4)c3c2C)C[C@H]1N` [Comparative Compound E, 5-amino-7-[(3S,4S)-3-amino-4-ethyl-1-pyrrolidinyl]-1-cyclopropyl-6-fluoro-1,4-dihydro-8-methyl-4-oxoquinoline-3-carboxylic acid, reference compound] the “Percentile induction … (TA %)” value ([1]; 1 μg/mL, CHL/IU cells) was 0%, the “Percentile induction … (TA %)” value ([1]; 3 μg/mL, CHL/IU cells) was 3% and the “Percentile induction … (TA %)” value ([1]; 10 μg/mL, CHL/IU cells) was 1%. The “Percentile induction … (TA %)” value ([1]; 30 μg/mL, CHL/IU cells) was 6%, the “Percentile induction … (TA %)” value ([1]; 50 μg/mL, CHL/IU cells) was “TOX*^1” and the “Percentile induction … (TA %)” value ([1]; 100 μg/mL, CHL/IU cells) was “TOX*^1”. The “Concentration at which C-mitosis and ski-pair-like chromosomes are observed considerably” value ([1]; CHL/IU cells) was at least 50 µg/mL and the “Significant increase in number of the cells exhibiting chromosomal aberration” value ([1]; at a concentration of up to 30 μg/mL) was “not observed”.
With `CCC[C@H]1CN(c2c(F)cc3c(=O)c(C(=O)O)cn([C@@H]4C[C@@H]4F)c3c2OC)C[C@H]1N` [Compound No. 4, 7-[(3S,4S)-3-Amino-4-propylpyrrolidin-1-yl]-6-fluoro-1-[(1R,2S)-2-fluorocyclopropyl]-8-methoxy-1,4-dihydro-4-oxoquinoline-3-carboxylic acid] the melting point was 79 to 83 °C.
In the case of `CCC[C@H]1CN(c2c(F)cc3c(=O)c(C(=O)O)cn([C@@H]4C[C@@H]4F)c3c2C)C[C@H]1N` [Compound No. 5, 7-[(3S,4S)-3-Amino-4-propylpyrrolidin-1-yl]-6-fluoro-1-[(1R,2S)-2-fluorocyclopropyl]-8-methyl-1,4-dihydro-4-oxoquinoline-3-carboxylic acid-hydrochloride], the MIC (S. marcescens 10100; Serratia marcescens, 10100) is reported as 0.05 µg/mL, the MIC (E. coli NIHJ; Escherichia coli) is reported as 0.006 µg/mL and the MIC (P. Vulgalis 08601) is reported as 0.012 µg/mL. The MIC (S. pyogenes G-36; Streptococcus pyogenes, G36) was 0.025 µg/mL, the MIC (P. aeruginosa 32104; Pseudomonas aeruginosa, 32104) was 0.2 µg/mL and the MIC (P. aeruginosa 32121; Pseudomonas aeruginosa, 32121) was 0.1 µg/mL. For the same compound, the MIC (S. maltophilia IID 1275; Stenotrophomonas maltophilia, IID1275) was 0.05 µg/mL, the MIC (K. pneumoniae TYPE I; Klebsiella pneumoniae) was 0.025 µg/mL and the MIC (S. flexneri 2A 5503; Shigella flexneri, 2A5503, read-out: MIC) was 0.006 µg/mL. It also gave an MIC (S. aureus 870307; Staphylococcus aureus, 870307) of 0.2 µg/mL, an MIC (S. aureus FDA 209P; Staphylococcus aureus, FDA209P) of 0.006 µg/mL and an MIC (E. faevcalis ATCC 19433) of 0.1 µg/mL. For the same compound, the MIC (S. pneumoniae J24; Streptococcus pneumoniae, J24) was 0.025 µg/mL and the MIC (S. epidermidis 56500; Staphylococcus epidermidis, 56500) was 0.025 µg/mL.
Work on `C=C[C@H]1CN(c2c(F)cc3c(=O)c(C(=O)O)cn4c3c2OC[C@@H]4C)C[C@H]1N` [Compound No. 7, (3S)-10-[(3S,4S)-3-Amino-4-vinyl-1-pyrrolidinyl]-9-fluoro-2,3-dihydro-3-methyl-7-oxo-7H-pyrido[1,2,3-de][1,4]benzoxazine-6-carboxylic acid] yielded a melting point of 238 to 240 °C.
`C[C@H]1COc2c(N3C[C@@H](N)[C@@H](C4CC4)C3)c(F)cc3c(=O)c(C(=O)O)cn1c23` [Compound No. 9, (3S)-10-[(3S,4S)-3-Amino-4-cyclopropylpyrrolidin-1-yl]-9-fluoro-2,3-dihydro-3-methyl-7-oxo-7H-pyrido[1,2,3-de][1,4]benzoxazine-6-carboxylic acid] gave a melting point of 218 to 220 °C.
Compound `CC[C@H]1CN(c2c(F)cc3c(=O)c(C(=O)O)cn([C@@H]4C[C@@H]4F)c3c2OC)C[C@H]1NC` [Compound No. 12, 7-[(3S,4S)-3-Ethyl-4-methylaminopyrrolidin-1-yl]-6-fluoro-1-[(1R,2S)-2-fluorocyclopropyl]-8-methoxy-1,4-dihydro-4-oxoquinoline-3-carboxylic acid] has a melting point of 143 to 145 °C.
Work on `CC[C@H]1CN(c2c(F)cc3c(=O)c(C(=O)O)cn4c3c2OC[C@@H]4C)C[C@H]1NC` [Compound No. 13, (3S)-10-[(3S,4S)-3-Ethyl-4-methylaminopyrrolidin-1-yl]-9-fluoro-2,3-dihydro-3-methyl-7-oxo-7H-pyrido[1,2,3-de][1,4]benzoxazine-6-carboxylic acid] yielded a melting point of 211 to 213 °C.
Work on `CC[C@H]1CN(c2ccc3c(=O)c(C(=O)O)cn([C@@H]4C[C@@H]4F)c3c2C)C[C@H]1N` [Compound No. 14, 7-[(3S,4S)-3-Amino-4-ethylpyrrolidine-1-yl]-1-[(1R,2S)-2-fluorocyclopropyl]-8-methyl-1,4-dihydro-4-oxoquinoline-3-carboxylic acid] yielded a melting point of 232 to 234 °C.
In the case of `CC[C@H]1CN(c2c(F)cc3c(=O)c(C(=O)O)cn([C@@H]4C[C@@H]4F)c3c2C)C[C@H]1NC` [Compound No. 15, 7-[(3S,4S)-3-Ethyl-4-methylaminopyrrolidin-1-yl]-6-fluoro-1-[(1R,2S)-2-fluorocyclopropyl]-8-methyl-1,4-dihydro-4-oxoquinoline-3-carboxylic acid], the melting point is reported as 223 to 225 °C.
In the case of `CN[C@@H]1CN(c2c(F)cc3c(=O)c(C(=O)O)cn([C@@H]4C[C@@H]4F)c3c2C)C[C@@H]1C(C)C` [Compound No. 17, 6-Fluoro-1-[(1R,2S)-2-fluorocyclopropyl]-7-[(3S,4S)-3-isopropyl-4-methylaminopyrrolidin-1-yl]-8-methyl-1,4-dihydro-4-oxoquinoline-3-carboxylic acid], the melting point is reported as 168 to 171 °C.
With `C[C@H]1COc2c(N3CCN(C)CC3)c(F)cc3c(=O)c(C(=O)O)cn1c23` [LVFX, reference compound] the MIC (S. marcescens 10100; S. marcescens 10100) was 0.1 µg/mL (≈ 0.277 µM), the MIC (E. coli NIHJ; E. coli NIHJ) was 0.012 µg/mL (≈ 0.0332 µM) and the MIC (P. Vulgalis 08601; P. Vulgalis 08601) was 0.012 µg/mL (≈ 0.0332 µM). For the same compound, the MIC (S. pyogenes G-36; S. pyogenes G-36) was 0.78 µg/mL (≈ 2.16 µM), the MIC (P. aeruginosa 32104; P. aeruginosa 32104) was 0.2 µg/mL (≈ 0.553 µM) and the MIC (P. aeruginosa 32121; P. aeruginosa 32121) was 0.1 µg/mL (≈ 0.277 µM). For the same compound, the MIC (S. maltophilia IID 1275; S. maltophilia IID 1275) was 0.39 µg/mL (≈ 1.08 µM), the MIC (K. pneumoniae TYPE I; K. pneumoniae TYPE I) was 0.1 µg/mL (≈ 0.277 µM) and the MIC (S. flexneri 2A 5503) was 0.025 µg/mL (≈ 0.0692 µM). The MIC (S. aureus 870307; [2]) was over 6.25 µg/mL, the MIC (S. aureus FDA 209P; S. aureus FDA 209P) was 0.2 µg/mL (≈ 0.553 µM) and the MIC (E. faevcalis ATCC 19433; E. faevcalis ATCC 19433) was 0.78 µg/mL (≈ 2.16 µM). The MIC (S. pneumoniae J24; [3]) was 0.78 µg/mL (≈ 2.16 µM) and the MIC (S. epidermidis 56500; S. epidermidis 56500) was 0.39 µg/mL (≈ 1.08 µM).
